Data: the Deep4Chem optical property database
One block for each molecule: values may come before it.

Assay: solvent given as SMILES

SMILES: Cc1ccc(-c2ccc(/C=C/c3cccn3C)cn2)nc1
fluorescence lifetime (in C1COCCO1): 0.59 ns
fluorescence lifetime (in CC#N): 0.51 ns
fluorescence lifetime (in CCCCCC): 0.86 ns
fluorescence lifetime (in CCO): 0.92 ns
fluorescence lifetime (in CN(C)C=O): 0.65 ns
fluorescence lifetime (in CO): 1 ns
fluorescence lifetime (in CS(C)=O): 0.64 ns
fluorescence lifetime (in Cc1ccccc1): 0.56 ns
fluorescence lifetime (in ClC(Cl)Cl): 0.62 ns
fluorescence lifetime (in c1ccccc1): 0.51 ns

SMILES: Cc1ccc(/C2=c3\cc/c(o3)=C(\c3ccc(C)cc3)c3ccc([nH]3)-c3ccc4n3[P-](=O)(=O)[N+]3=C(C=CC3=C4c3ccco3)c3ccc2[nH]3)cc1
fluorescence lifetime (in ClC(Cl)Cl): 4.2 ns

SMILES: O=S(=O)(c1ccc(N2c3ccccc3[Si](c3ccccc3)(c3ccccc3)c3ccccc32)cc1)c1ccc(N2c3ccccc3[Si](c3ccccc3)(c3ccccc3)c3ccccc32)cc1
fluorescence lifetime (in c1cc(-n2c3ccccc3c3ccccc32)cc(-n2c3ccccc3c3ccccc32)c1): 4 ns

SMILES: COc1ccc(-c2csc(/C(C#N)=C/c3ccncc3)n2)cc1
fluorescence lifetime (in CC#N): 1.92 ns

SMILES: COc1ccc(-c2csc(/C(C#N)=C/c3ccc(Cl)cc3)n2)cc1
fluorescence lifetime (in CC#N): 3.61 ns

SMILES: CCCCCCC(CCCCCC)n1c(=O)c2c3ccc4cccc5c6cccc7ccc(c2c1=O)c(c76)c3c45
fluorescence lifetime (in C1CCCCC1): 10.5 ns
fluorescence lifetime (in CC#N): 7.5 ns
fluorescence lifetime (in CC(C)=O): 7.8 ns
fluorescence lifetime (in CCCCCC): 9.5 ns
fluorescence lifetime (in CCO): 6.5 ns
fluorescence lifetime (in CCOCC): 9.6 ns
fluorescence lifetime (in CS(C)=O): 7.7 ns
fluorescence lifetime (in Cc1ccccc1): 9.2 ns
fluorescence lifetime (in ClC(Cl)(Cl)Cl): 8.7 ns
fluorescence lifetime (in ClC(Cl)Cl): 6.7 ns

SMILES: Nc1ccc2c(c1)-c1ccccc1C2=O
fluorescence lifetime (in CC#N): 5.9 ns
fluorescence lifetime (in c1ccccc1): 11 ns

SMILES: Nc1ccc2c(c1)C(=O)c1ccc(N)cc1C2=O
fluorescence lifetime (in CC#N): 1.85 ns
fluorescence lifetime (in CC(C)O): 0.6 ns
fluorescence lifetime (in CCO): 0.47 ns
fluorescence lifetime (in CCOC(C)=O): 2.01 ns
fluorescence lifetime (in CO): 0.34 ns

SMILES: CCn1c(=O)nc2n(C)c3cc(C)ccc3nc-2c1=O
fluorescence lifetime (in CC#N): 7 ns
fluorescence lifetime (in CO): 6.3 ns
fluorescence lifetime (in ClCCCl): 6.5 ns

SMILES: CN(C)c1ccc(/C=C/c2ccc(-c3ccc(/C=C/c4ccc(N(C)C)cc4)s3)s2)cc1
fluorescence lifetime (in C1CCOC1): 1.08 ns
fluorescence lifetime (in CC#N): 1.12 ns
fluorescence lifetime (in CC(C)=O): 1.11 ns
fluorescence lifetime (in CN(C)C=O): 1.15 ns
fluorescence lifetime (in Cc1ccccc1): 1.03 ns

SMILES: O=C(O)c1ccccc1Nc1cccc(C(F)(F)F)c1
fluorescence lifetime (in C1CCCCC1): 2.93 ns
fluorescence lifetime (in C1CCOC1): 4.54 ns
fluorescence lifetime (in C1COCCO1): 3.97 ns
fluorescence lifetime (in CC#N): 4.04 ns
fluorescence lifetime (in CCOC(C)=O): 4.65 ns
fluorescence lifetime (in CN(C)C=O): 6.28 ns
fluorescence lifetime (in CO): 5.08 ns
fluorescence lifetime (in ClC(Cl)Cl): 3.86 ns

SMILES: COC(=O)CC1(C(=O)OC)Oc2c(c(C(C)=O)c3c(c2C(C)=O)OCO3)O1
fluorescence lifetime (in CC#N): 22.4 ns

SMILES: ClC(Cl)=C1c2ccccc2C(C2(Cl)c3ccccc3C(=C(Cl)Cl)c3ccccc32)c2ccccc21 (stereo unspecified)
fluorescence lifetime (in C1CCCCC1): 10.4 ns
fluorescence lifetime (in CCCCCO): 16 ns
fluorescence lifetime (in CCCCO): 12.6 ns
fluorescence lifetime (in CCCO): 11.9 ns
fluorescence lifetime (in CCO): 11.7 ns
fluorescence lifetime (in CO): 11.2 ns

SMILES: COc1ccc(N(c2ccc(OC)cc2)c2ccc3ccc4c(B(c5c(C)cc(C)cc5C)c5c(C)cc(C)cc5C)ccc5ccc2c3c54)cc1
fluorescence lifetime (in C1CCOC1): 3.2 ns
fluorescence lifetime (in CC(C)=O): 0.7 ns
fluorescence lifetime (in CCCCCC): 6.2 ns
fluorescence lifetime (in Cc1ccccc1): 8.2 ns
fluorescence lifetime (in ClC(Cl)Cl): 8.5 ns
fluorescence lifetime (in ClCCl): 3.9 ns

SMILES: Cn1c2ccc(S(=O)(=O)Cl)cc2c(=O)c2cc(S(=O)(=O)Cl)ccc21
fluorescence lifetime (in CS(C)=O): 10.6 ns

SMILES: Cc1ccc(/C2=C3N=C(C(c4ccccc4)=C/3c3ccccc3)/C(c3ccc(C)cc3)=c3\[nH]/c(c(-c4ccccc4)c3-c3ccccc3)=C(/c3ccc(C)cc3)C3=N/C(=C(/c4ccc(C)cc4)c4[nH]c2c(-c2ccccc2)c4-c2ccccc2)C(c2ccccc2)=C3c2ccccc2)cc1
fluorescence lifetime (in ClCCl): 0.472 ns

SMILES: CC[n+]1nc2cc3c4c(c2c2cc(F)ccc21)CCCN4CCC3
fluorescence lifetime (in O): 4.4 ns

SMILES: [BH3-][P+]1(c2ccccc2)c2ccccc2-c2sc3ccccc3c21 (stereo unspecified)
fluorescence lifetime (in ClCCl): 3 ns

SMILES: CN(C)c1ccc(C2=Nc3scc(-c4ccc([N+](=O)[O-])cc4)[n+]3[B-](F)(F)O2)cc1
fluorescence lifetime (in C1CCOC1): 1.64 ns

SMILES: CSc1sc(C(=O)c2ccccc2)c2nn[nH]c(=O)c12
fluorescence lifetime (in C1CCOC1): 0.33 ns
fluorescence lifetime (in CC#N): 0.41 ns
fluorescence lifetime (in CCO): 0.28 ns
fluorescence lifetime (in CN(C)C=O): 0.19 ns
fluorescence lifetime (in CO): 0.22 ns
fluorescence lifetime (in CS(C)=O): 0.13 ns

SMILES: CCCCCCCCCCCCOc1cc2cc(N(C)C)ccc2cc1C=O
fluorescence lifetime (in ClCCl): 4.5 ns

SMILES: CCN(CC)c1ccc2nc3c4ccccc4c(=O)cc-3oc2c1
fluorescence lifetime (in C1CCCCC1): 2.76 ns
fluorescence lifetime (in C1COCCO1): 4.5 ns
fluorescence lifetime (in CC1COC(=O)O1): 4.4 ns
fluorescence lifetime (in CC#N): 4.7 ns
fluorescence lifetime (in CC(C)=O): 4.66 ns
fluorescence lifetime (in CC(C)O): 4.1 ns
fluorescence lifetime (in CCCC#N): 4.54 ns
fluorescence lifetime (in CCCCCCCCCCO): 4.19 ns
fluorescence lifetime (in CCCCCO): 3.95 ns
fluorescence lifetime (in CCCCO): 3.91 ns
fluorescence lifetime (in CCCCOCCCC): 4.15 ns
fluorescence lifetime (in CCCO): 3.8 ns
fluorescence lifetime (in CCO): 3.65 ns
fluorescence lifetime (in CCOC(C)=O): 4.53 ns
fluorescence lifetime (in CCOCC): 4.45 ns
fluorescence lifetime (in CN(C)C=O): 4.35 ns
fluorescence lifetime (in CO): 2.8 ns
fluorescence lifetime (in ClC(Cl)(Cl)Cl): 4.1 ns
fluorescence lifetime (in ClCCl): 4.48 ns
fluorescence lifetime (in OC(C(F)(F)F)C(F)(F)F): 0.94 ns
fluorescence lifetime (in OCC(F)(F)F): 1.76 ns
fluorescence lifetime (in OCC(O)CO): 1.95 ns
fluorescence lifetime (in OCCO): 2.5 ns
fluorescence lifetime (in [2H]OC): 4.2 ns
fluorescence lifetime (in [2H]OCC): 4.56 ns

SMILES: CCCCCCCCCCCCn1cccc1/C=C/c1ccc(/C=C/c2cccn2CCCCCCCCCCCC)cc1
fluorescence lifetime (in Cc1ccccc1): 1.06 ns

SMILES: CCCCOc1ccc(/C=C/C=C/C=C/c2ccc([N+](=O)[O-])cc2)cc1
fluorescence lifetime (in Cc1ccccc1): 1.7 ns

SMILES: COC(C)CC1=N/C(=C\c2cccc(N(C)C)c2)C(=O)N1C (stereo unspecified)
fluorescence lifetime (in C1CCOC1): 15.3 ns
fluorescence lifetime (in CC#N): 7.7 ns
fluorescence lifetime (in CCCCCC): 22.4 ns

SMILES: Cc1ccc(N(c2ccc(C)cc2)c2ccc(-c3ccc4c(c3)C(=O)c3ccccc3C4=O)cc2)cc1
fluorescence lifetime (in CCCCCC): 6.89 ns
fluorescence lifetime (in CCOCC): 1.27 ns
fluorescence lifetime (in Cc1ccccc1): 5.75 ns
fluorescence lifetime (in ClC(Cl)(Cl)Cl): 9.25 ns

SMILES: Cc1ccc2c(c1)C1(c3ccccc3Oc3ccccc31)c1cc(C)ccc1N2c1ccc(-c2ncccn2)cc1
fluorescence lifetime (in O=P(c1ccccc1)(c1ccccc1)c1ccc2oc3ccc(P(=O)(c4ccccc4)c4ccccc4)cc3c2c1): 11 ns

SMILES: Nc1ccc2c(-c3ccc(C(=O)CN4C(=O)CCC4=O)cc3C(=O)[O-])c3ccc(=[NH2+])c(S(=O)(=O)[O-])c-3oc2c1S(=O)(=O)[O-]
fluorescence lifetime (in O): 4.1 ns

SMILES: CC1(C)c2ccccc2N(c2cc[n+]3c(c2)-c2ccccc2O[B-]3(F)F)c2ccccc21
fluorescence lifetime (in O=P(c1ccccc1)(c1ccccc1)c1ccccc1Oc1ccccc1P(=O)(c1ccccc1)c1ccccc1): 6.2 ns

SMILES: C(#Cc1ccc(C#Cc2ccccc2)cc1)c1ccccc1
fluorescence lifetime (in ClC(Cl)Cl): 2.57 ns

SMILES: COc1ccc(C2=C(c3ccc(C)cc3)C(c3ccccc3)=[N+]3C2=Nc2c(-c4ccc(OC)cc4)c(-c4ccc(C)cc4)c(-c4ccccc4)n2[B-]3(F)F)cc1
fluorescence lifetime (in Cc1ccccc1): 0.23 ns

SMILES: F[B-]1(F)OC(c2ccc3c(c2)Cc2ccccc2-3)=CC(c2ccccc2)=[O+]1
fluorescence lifetime (in CC#N): 2.6 ns

SMILES: c1ccc(N(c2ccccc2)c2ccc(-c3ccc4c(c3)C3(c5ccccc5Oc5ccccc53)c3cc(-c5ccc(N(c6ccccc6)c6ccccc6)cc5)ccc3-4)cc2)cc1
fluorescence lifetime (in ClCCl): 1.2 ns

SMILES: N#Cc1c(-n2c3ccc(I)cc3c3cc(I)ccc32)c(-n2c3ccc(I)cc3c3cc(I)ccc32)c(C#N)c(-n2c3ccc(I)cc3c3cc(I)ccc32)c1-n1c2ccc(I)cc2c2cc(I)ccc21
fluorescence lifetime (in Cc1ccccc1): 0.1 ns

SMILES: Cn1cc(-c2nc3ccccc3nc2/C=C/N2CCCC2)c2ccccc21
fluorescence lifetime (in C1CCCCC1): 1.27 ns
fluorescence lifetime (in C1CCOC1): 5.12 ns
fluorescence lifetime (in CC#N): 6.75 ns
fluorescence lifetime (in CC(C)=O): 6.42 ns
fluorescence lifetime (in CCO): 0.75 ns
fluorescence lifetime (in CO): 0.19 ns
fluorescence lifetime (in CS(C)=O): 7.19 ns
fluorescence lifetime (in Cc1ccccc1): 3.62 ns
fluorescence lifetime (in ClCCl): 7.01 ns

Next, values leading:

fluorescence lifetime (in ClCCl): 2.7 ns
SMILES: N#Cc1ccc(N(c2ccccc2)c2ccc3ccc4c(N(c5ccccc5)c5ccc(C#N)cc5)ccc5ccc2c3c54)cc1

fluorescence lifetime (in ClCCl): 1.12 ns
SMILES: CC(C)c1cccc(C(C)C)c1N1C(=O)c2cccc3c(Oc4ccc(C(C)(C)C)cc4)ccc(c23)C1=O

fluorescence lifetime (in CCCCCC): 5.44 ns
fluorescence lifetime (in CCCCCCCCO): 5.07 ns
fluorescence lifetime (in CCOC(C)=O): 5.32 ns
fluorescence lifetime (in CN(C)C=O): 4.92 ns
SMILES: CC1=CC(C)=[N+]2C1=Cc1c3ccccc3c(C#Cc3ccc(F)cc3)n1[B-]2(F)F

fluorescence lifetime (in ClCCl): 2.21 ns
SMILES: CCN(CC)c1ccc2c(-c3ccccc3C(=O)O)c3c([o+]c2c1)/C(=C/c1nc(C)n2ccccc12)CCC3

fluorescence lifetime (in ClCCl): 9.88 ns
SMILES: CCN(CC)c1ccc2cc(-c3ccc(-c4ccc(-c5cc6ccccc6oc5=O)cc4)cc3)c(=O)oc2c1

fluorescence lifetime (in CCO): 13.4 ns
SMILES: CCOC(=O)CCCCCn1c2ccc(OC)cc2c(=O)c2cc3c(cc21)c(=O)c1cc(OC)ccc1n3CCCCCC(=O)OCC

fluorescence lifetime (in ClCCl): 1.78 ns
SMILES: CCCCn1c(-c2ccc(-c3nnc(-c4ccc5ccccc5c4)o3)cc2)nc2c3ccccc3c3ccccc3c21

fluorescence lifetime (in ClC(Cl)Cl): 10.7 ns
SMILES: Cc1cc(=O)oc2cc3c(cc12)c1c2ccccc2c2ccccc2c1c1c2ccccc2c2ccccc2c31

fluorescence lifetime (in CCCCCC): 60.9 ns
fluorescence lifetime (in CO): 78.6 ns
fluorescence lifetime (in ClCCl): 43.1 ns
SMILES: CC(C)(C)c1ccc2ccc3c(C(C)(C)C)ccc4ccc1c2c43

fluorescence lifetime (in ClCCl): 1.34 ns
SMILES: COC(=O)c1ccc(C2=C(/C=C/c3ccc(OC)cc3)O[B-](F)(F)[O+]=C2/C=C/c2ccc(OC)cc2)cc1

fluorescence lifetime (in CCO): 4.72 ns
fluorescence lifetime (in CN(C)C=O): 5.08 ns
fluorescence lifetime (in CS(C)=O): 5.3 ns
SMILES: c1ccc(-c2oc(-c3ccccc3)c3ccccc23)cc1

fluorescence lifetime (in C1CCCCC1): 21.2 ns
fluorescence lifetime (in CC#N): 26.8 ns
fluorescence lifetime (in CO): 25.9 ns
fluorescence lifetime (in ClCCl): 23.2 ns
SMILES: COc1c2ccccc2c(OC)c2c1c1cc(Cl)ccc1n2C

fluorescence lifetime (in O): 12.8 ns
SMILES: O=C([O-])c1cc2c(ccc3ccccc32)oc1=O

fluorescence lifetime (in CC#N): 0.028 ns
SMILES: COc1cccc(-[c+]2c3ccccc3oc3ccccc32)c1

fluorescence lifetime (in ClCCl): 4.21 ns
SMILES: c1ccc(-c2cc3cc4cccc5c(-c6ccccc6)cc6cc7cccc2c7c3c6c45)cc1

fluorescence lifetime (in CCO): 15.2 ns
SMILES: O=C1c2cccc3cc4ccccc4c(c23)C(=O)N1Cc1ccccn1

fluorescence lifetime (in ClCCl): 1.35 ns
SMILES: COc1cc(C(=O)c2c(C)c3ccc4cccc5c6cccc7ccc2c(c76)c3c45)cc(OC)c1OC

fluorescence lifetime (in ClCCl): 0.69 ns
SMILES: CC(C)(C)NC(=O)c1ccc(-c2cc3ccccc3s2)c2ccc3c4ccccc4c4ccccc4c3c12
